Measurements published in patent US11780851B2, “LRRK2 inhibitors” (H. Lundbeck A/S, priority 2021, dated 2023).
“Also recorded” adds a separate entry of the source. Where two headings read alike, the source gives them in different places.

Legend:
[1] = molecular target: T1, LRRK2 G2019S (Homo sapiens, UniProt Q5S007, G2019S); experiment: LRRK2 G2019S kinase activity assay (LanthaScreen TR-FRET); assay type: biochemical; conditions: 250 pM LRRK2 G2019S, 1.3 mM ATP, 3 h at 30° C.; n≥2 tests
T1 construct: purchased Invitrogen (Life Technologies Corporation)
Summary of the method: (§1)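 TR-FRET measured phosphorylation of fluorescein-ERM LRRKtide by human LRRK2 residues 970–2527, wild-type or G2019S, detected with a terbium anti-phospho-LRRKtide antibody. The 520/495 nm ratio was normalized to uninhibited and inhibitor controls. IC50 came from a Hill fit, log-averaged over independent experiments.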

[2] = molecular target: T2, LRRK2 WT (Homo sapiens, UniProt Q5S007); experiment: LRRK2 wild-type kinase activity assay (LanthaScreen TR-FRET); assay type: biochemical; conditions: 1 nM LRRK2 WT, 1.3 mM ATP, 3.5 h at 30° C.; n≥2 tests
T2 construct: comprises residue 970 to 2527 of the full length human wild-type LRRK2 kinase; purchased Invitrogen (Life Technologies Corporation)
Summary of the method: as §1

[3] = test system: pooled donor, cryopreserved hepatocytes; experiment: Hepatocyte intrinsic clearance assay; assay type: in vitro ADME, human; conditions: 0.1 μM, 2 h at 37° C., 1×10^6 hepatocytes/mL; * measured on 3 separate occasions, ** on a single occasion
Description: (§2) Test compounds (final concentration 0.1 μM, 0.05% organic) were incubated for 2 h at 37° C., with shaking, in supplemented Leibovitz L-15 media (pH7.4) containing commercially sourced, pooled donor, cryopreserved hepatocytes (final concentration 1×10^6 hepatocytes/m L). The CLint reactions (350 μL) were initiated by addition of test compound. Aliquots (25 μL) were taken at 1, 5, 10, 15, 30, 60, 90 and 120 minutes and then protein crashed with ice-cold acetonitrile containing internal standard (150 μL) then centrifuged (1960 g for 20 minutes at 4° C.). Supernatant was diluted (1:4) with deionized water then analyzed by liquid chromatography (LC)-tandem mass spectrometry (MS/MS). The intrinsic clearances (CLint) were calculated from the slope (k) of the linear regressions of percentages of compound remaining in incubation against incubation time, according to equations 2 and 3.

[4] = GSH adduct screening; assay type: in vitro ADME, human; conditions: 1 μM, 3 h at 37° C., HLM 0.5 mg/mL, NADPH, with and without GSH
Description: Test compounds (final concentration 1 μM, 0.25% organic) were incubated for 3 h at 37° C. in commercially sourced, pooled donor, human liver microsomes (HLM, final concentration 0.5 mg/mL) with and without addition of glutathione (GSH; final concentration […]). The metabolic reaction was initiated by addition of microsomal solution to the mixture of cofactor NADPH (final concentration 1 mM), test compound and GSH. After 3 h of incubation in a water bath at 37° C., the reaction was stopped by addition of 0.2% formic acid in acetonitrile, followed by mixing and centrifugation (16000 g for 5 minutes). Supernatant was diluted (1:1) with HPLC water then analyzed by liquid chromatography (LC)-quadrupole time-of-flight mass spectrometry (QTOF-MS). Accurate mass MS and MS/MS spectra from samples with GSH and without GSH, respectively, were compared to identify detectable GSH and/or cysteine related adducts.

[5] = Hepatocyte intrinsic clearance assay; assay type: in vitro ADME, human; conditions: human, pooled donor, cryopreserved hepatocytes, pH 7.4, 0.1 μM, 2 h at 37° C., 1×10^6 hepatocytes/mL; * measured on 3 separate occasions, ** on a single occasion
Description: as §2

[6] = Rat B/P (brain disposition); assay type: in vivo, male Sprague-Dawley rats; conditions: male, Sprague-Dawley; for concentration at 0.5 h / Kp at 0.5 h / Kp uu at 0.5 h: time point 0.5 h; for concentration at 0.5 h / Kp at 0.5 h / concentration at 1 h / Kp at 1 h: mean ± stdev; for Kp at 0.5 h / Kp uu at 0.5 h / Kp at 1 h / Kp uu at 1 h: brain/plasma; for Kp at 0.5 h / Kp at 1 h: n = 3; for Kp uu at 0.5 h / Kp uu at 1 h: fubrain from brain homogenate; for concentration at 1 h / Kp at 1 h / Kp uu at 1 h: time point 1.0 h
Summary of the method: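 Male Sprague-Dawley rats (n=3, standard body weight) were used to assess brain disposition. Plasma and brain homogenates underwent protein precipitation with acetonitrile containing internal standard, then LC-MS/MS measurement using an optimized method. Compound levels were quantified against matrix-matched calibration standards, and brain Kp was calculated as total brain concentration divided by total plasma concentration.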

[7] = Free fraction in plasma (equilibrium dialysis); assay type: in vitro ADME, male Sprague-Dawley rat; conditions: rat plasma, 1 μM, 5 h at 37° C.
Summary of the method: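 Equilibrium dialysis (12-14 kDa membrane) of male Sprague-Dawley rat or female Gottingen minipig plasma, or rat brain homogenate diluted 1:4, against 100 mM sodium phosphate pH 7.4, compound at 1 μM nominal (≤0.5% DMSO), 5 h at 37 °C. LC/MS-MS quantification; percent free calculated, with dilution factor 4 for brain.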

[8] = brain, oral gavage 10 mg/kg, n = 3, read-out: Total brain concentration
[9] = po, 10 mg/kg, oral gavage 10 mg/kg
[10] = plasma, oral gavage 10 mg/kg, n = 3, read-out: Total plasma concentration

T1 sequence (Q5S007 970-2527 G2019S): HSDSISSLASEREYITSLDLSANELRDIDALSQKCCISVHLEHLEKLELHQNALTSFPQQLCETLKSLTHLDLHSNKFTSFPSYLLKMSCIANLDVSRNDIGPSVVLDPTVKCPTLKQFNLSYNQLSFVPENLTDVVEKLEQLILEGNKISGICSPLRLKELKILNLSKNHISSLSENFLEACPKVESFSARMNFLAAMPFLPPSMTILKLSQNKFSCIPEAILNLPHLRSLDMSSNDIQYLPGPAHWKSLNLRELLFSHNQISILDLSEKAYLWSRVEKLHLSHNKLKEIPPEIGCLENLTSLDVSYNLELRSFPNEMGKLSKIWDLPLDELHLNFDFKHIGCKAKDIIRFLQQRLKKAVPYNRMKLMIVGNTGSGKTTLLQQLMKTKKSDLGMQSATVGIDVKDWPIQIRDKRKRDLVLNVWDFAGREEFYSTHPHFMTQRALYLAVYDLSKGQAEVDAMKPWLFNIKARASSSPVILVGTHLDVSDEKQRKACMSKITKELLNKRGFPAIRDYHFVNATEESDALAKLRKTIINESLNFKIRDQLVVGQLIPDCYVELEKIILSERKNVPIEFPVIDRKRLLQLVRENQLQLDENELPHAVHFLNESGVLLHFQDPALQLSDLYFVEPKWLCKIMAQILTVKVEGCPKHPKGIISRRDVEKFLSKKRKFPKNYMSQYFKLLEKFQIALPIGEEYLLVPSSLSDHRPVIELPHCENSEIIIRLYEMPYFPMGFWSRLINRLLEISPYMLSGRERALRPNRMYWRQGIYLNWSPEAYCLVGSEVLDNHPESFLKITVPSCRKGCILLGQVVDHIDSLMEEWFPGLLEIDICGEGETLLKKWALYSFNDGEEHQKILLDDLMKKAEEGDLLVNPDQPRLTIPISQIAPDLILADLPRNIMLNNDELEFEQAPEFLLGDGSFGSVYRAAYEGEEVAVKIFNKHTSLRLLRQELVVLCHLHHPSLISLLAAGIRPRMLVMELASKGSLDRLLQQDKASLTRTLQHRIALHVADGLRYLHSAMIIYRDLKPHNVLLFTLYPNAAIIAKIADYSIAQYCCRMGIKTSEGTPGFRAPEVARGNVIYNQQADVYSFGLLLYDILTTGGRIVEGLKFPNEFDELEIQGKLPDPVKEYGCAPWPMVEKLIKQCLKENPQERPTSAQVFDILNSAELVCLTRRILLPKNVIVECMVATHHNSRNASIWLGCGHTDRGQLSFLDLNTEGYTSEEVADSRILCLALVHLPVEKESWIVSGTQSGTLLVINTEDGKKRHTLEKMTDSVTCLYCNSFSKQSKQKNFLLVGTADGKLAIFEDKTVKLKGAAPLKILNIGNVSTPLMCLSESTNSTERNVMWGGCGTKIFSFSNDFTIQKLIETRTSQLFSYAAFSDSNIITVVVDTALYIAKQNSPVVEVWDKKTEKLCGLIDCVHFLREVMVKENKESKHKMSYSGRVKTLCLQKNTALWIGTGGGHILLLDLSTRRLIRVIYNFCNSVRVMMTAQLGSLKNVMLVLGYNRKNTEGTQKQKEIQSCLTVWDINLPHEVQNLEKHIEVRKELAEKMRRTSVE
T2 sequence (Q5S007 970-2527): as the sequence (Q5S007 970-2527 G2019S) above, with S1050G counted along it

Row | IC50 [1] | IC50 [2] | CLint [3] | Adduct detected in GSH supplemented HLMs [4] | fuplasma (% free) [7] | SMILES | other results
1 | 9 nM | 25 nM | 8.5 mL/min/kg |  |  | [2H]C([2H])([2H])c1c2c(nn1[C@@H]1CCCOC1)OCCCn1nc(Cl)c3cnc(nc31)N2 (single isomer, unassigned) [Example 60, (R) or (S)-8-Chloro-3-(methyl-d3)-2-(tetrahydro-2H-pyran-3-yl)-2,4,12,13-tetrahydro-11H-5,7-(azenometheno)dipyrazolo[3,4-b:5′,1′-g][1]oxa[4,6,8]triazacycloundecine] | 
2 | 10 nM | 19 nM | <4 mL/min/kg | +GSH |  | [2H]C([2H])([2H])c1c2c(nn1[C@H]1CCO[C@@H](C)C1)OCCCn1nc(Cl)c3cnc(nc31)N2 (single isomer, unassigned) [Example 52, (−)-8-Chloro-3-(methyl-d3)-2-((2R,4R) or (2S,4S)-2-methyltetrahydro-2H-pyranyl)-2,4,12,13-tetrahydro-11H-5,7-(azenometheno)dipyrazolo[3,4-b:5′,1′-g][1]oxa[4,6,8]triazacycloundecine] | 
3 | 3.7 nM | 8.5 nM |  | +GSH | 18.2 % free | CO[C@H]1CC[C@H](n2nc3c(c2C)Nc2ncc4c(Cl)nn(c4n2)CCCO3)CC1 [Example 37, 8-Chloro-2-((1r,4r)-4-methoxycyclohexyl)-3-methyl-2,4,12,13-tetrahydro-11H-5,7-(azenometheno)dipyrazolo[3,4-b:5′,1′-g][1]oxa[4,6,8]triazacycloundecine] | CLint scaled at 0.1 μM [5]: < 4 mL/min/kg; concentration at 0.5 h [6, 8]: 683 ± 139 ng/g; Kp at 0.5 h ([6]; oral gavage 10 mg/kg): 1.87 ± 0.76; Kp uu at 0.5 h [6, 9]: 0.47 ± 0.19; concentration at 0.5 h [6, 10]: 391 ± 96 ng/mL
4 | 6.1 nM | 15 nM | <4 mL/min/kg |  |  | Cc1c2c(nn1[C@@H]1CCOC[C@H]1F)OCCCn1nc(Cl)c3cnc(nc31)N2 (single isomer, unassigned) [Example 32, (+)-8-Chloro-2-((3S,4R) or (3R,4S)-3-fluorotetrahydro-2H-pyran-4-yl)-3-methyl-2,4,12,13-tetrahydro-11H-5,7-(azenometheno)dipyrazolo[3,4-b:5′,1′-g][1]oxa[4,6,8]triazacycloundecine] | 
5 | 4 nM | 12 nM | 10.5 mL/min/kg |  | 26.5 % free | Cc1c2c(nn1[C@H]1CCCOCC1)OCCCn1nc(Cl)c3cnc(nc31)N2 (single isomer, unassigned) [Example 30, (+)-(R) or (S)-8-Chloro-3-methyl-2-(oxepan-4-yl)-2,4,12,13-tetrahydro-11H-5,7-(azenometheno)dipyrazolo[3,4-b:5′,1′-g][1]oxa[4,6,8]triazacycloundecine] | concentration at 1 h ([6]; brain, oral gavage 5 mg/kg, n = 3, read-out: Total brain concentration): 427 ± 96 ng/g; Kp uu at 1 h ([6]; oral gavage 5 mg/kg): 0.73 ± 0.06; Kp at 1 h ([6]; oral gavage 5 mg/kg): 2.05 ± 0.18; concentration at 1 h ([6]; plasma, oral gavage 5 mg/kg, n = 3, read-out: Total plasma concentration): 210 ± 50 ng/mL
6 | 10 nM | 34 nM | <4 mL/min/kg |  |  | [2H]C([2H])([2H])c1c2c(nn1[C@@H]1CCCOC1)OCCCn1nc(Cl)c3cnc(nc31)N2 (single isomer, unassigned) [Example 61, (R) or (S)-8-Chloro-3-(methyl-d3)-2-(tetrahydro-2H-pyran-3-yl)-2,4,12,13-tetrahydro-11H-5,7-(azenometheno)dipyrazolo[3,4-b:5′,1′-g][1]oxa[4,6,8]triazacycloundecine] | 
7 | 6.2 nM | 17 nM | 6.67 mL/min/kg |  |  | [2H]C([2H])([2H])c1c2c(nn1[C@H]1CCCOCC1)OCCCn1nc(Cl)c3cnc(nc31)N2 (single isomer, unassigned) [Example 59, (−)-(R) or (S)-8-Chloro-3-(methyl-d3)-2-(oxepan-4-yl)-2,4,12,13-tetrahydro-11H-5,7-(azenometheno)dipyrazolo[3,4-b:5′,1′-g][1]oxa[4,6,8]triazacycloundecine] | 
8 | 3.9 nM | 13 nM | <4 mL/min/kg | +GSH | 24.0 % free | Cc1c2c(nn1[C@@H]1CCO[C@H](C)C1)OCCCn1nc(Cl)c3cnc(nc31)N2 (single isomer, unassigned) [Example 19] | concentration at 0.5 h [6, 8]: 1430 ± 134 ng/g; Kp uu at 0.5 h ([6]; oral gavage 10 mg/kg): 0.4 ± 0.04; Kp at 0.5 h ([6]; oral gavage 10 mg/kg): 1.28 ± 0.13; concentration at 0.5 h [6, 10]: 1140 ± 229 ng/mL
9 | 2.2 nM | 9.2 nM | 5.5 mL/min/kg |  |  | Cc1c2c(nn1[C@H]1CCCOC1)OCCCn1nc(Cl)c3cnc(nc31)N2 (single isomer, unassigned) [Example 3, (R) or (S)-8-Chloro-3-methyl-2-(tetrahydro-2H-pyran-3-yl)-2,4,12,13-tetrahydro-11H-5,7-(azenometheno)dipyrazolo[3,4-b:5′,1′-g][1]oxa[4,6,8]triazacycloundecine] | 
10 | 2.8 nM | 12 nM | 14.5 mL/min/kg |  | 25.3 % free | Cc1c2c(nn1[C@H]1CCCOC1)OCCCn1nc(Cl)c3cnc(nc31)N2 (single isomer, unassigned) [Example 4, (R) or (S)-8-Chloro-3-methyl-2-(tetrahydro-2H-pyran-3-yl)-2,4,12,13-tetrahydro-11H-5,7-(azenometheno)dipyrazolo[3,4-b:5′,1′-g][1]oxa[4,6,8]triazacycloundecine] | concentration at 1 h [6, 8]: 1360 ± 186 ng/g; Kp uu at 1 h ([6]; oral gavage 10 mg/kg): 0.42 ± 0.07; Kp at 1 h ([6]; oral gavage 10 mg/kg): 1.82 ± 0.33; concentration at 1 h [6, 10]: 758 ± 145 ng/mL

Row | SMILES | IC50 [1] | IC50 [2] | CLint [3] | Adduct detected in GSH supplemented HLMs [4] | fuplasma (% free) [7] | other results
11 | CCc1c2c(nn1C1CCOCC1)OCCCn1nc(Cl)c3cnc(nc31)N2 [Example 17, 8-Chloro-3-ethyl-2-(tetrahydro-2H-pyran-4-yl)-2,4,12,13-tetrahydro-11H-5,7-(azenometheno)dipyrazolo[3,4-b:5′,1′-g][1]oxa[4,6,8]triazacycloundecine] | 5.8 nM | 15 nM |  | did not form GSH adduct; also recorded: None detected | 27.5 % free | CLint scaled at 0.1 μM [5]: 5.67 mL/min/kg; concentration at 1 h [6, 8]: 1150 ± 59 ng/g; Kp at 1 h ([6]; oral gavage 10 mg/kg): 1.76 ± 0.08; Kp uu at 1 h [6, 9]: 0.59 ± 0.03; concentration at 1 h [6, 10]: 653 ± 52 ng/mL
